# Experimental data: publication PMC2864230 (Nature chemical biology, 2009)
# pKi: −log10 of the molar value.
# What was measured:
# uterine epithelia = experiment: Mouse uterine estrogenicity assay; type: in vivo; settings: G15 plus E2 (0.74 nmol); dose-dependent, maximal at 10-fold molar excess of G15
# GPR30 [1] = target: T1, GPR30 (Homo sapiens, UniProt Q99527); experiment: Intracellular calcium mobilization in indo1-AM-loaded SKBr3 cells; type: cell-based; settings: G15 1 μM
# ERβ = ERβ (Homo sapiens, UniProt Q92731); experiment: PI3K activation; type: cell-based; settings: ERβ-transfected COS7 cells; concentrations 100-fold greater than required to inhibit GPR30
# ERα [2] = target: T2, ERα (Homo sapiens, UniProt P03372); experiment: PI3K activation; type: cell-based; settings: ERα-transfected COS7 cells; concentrations 100-fold greater than required to inhibit GPR30
# T2 sequence (P03372 1-595): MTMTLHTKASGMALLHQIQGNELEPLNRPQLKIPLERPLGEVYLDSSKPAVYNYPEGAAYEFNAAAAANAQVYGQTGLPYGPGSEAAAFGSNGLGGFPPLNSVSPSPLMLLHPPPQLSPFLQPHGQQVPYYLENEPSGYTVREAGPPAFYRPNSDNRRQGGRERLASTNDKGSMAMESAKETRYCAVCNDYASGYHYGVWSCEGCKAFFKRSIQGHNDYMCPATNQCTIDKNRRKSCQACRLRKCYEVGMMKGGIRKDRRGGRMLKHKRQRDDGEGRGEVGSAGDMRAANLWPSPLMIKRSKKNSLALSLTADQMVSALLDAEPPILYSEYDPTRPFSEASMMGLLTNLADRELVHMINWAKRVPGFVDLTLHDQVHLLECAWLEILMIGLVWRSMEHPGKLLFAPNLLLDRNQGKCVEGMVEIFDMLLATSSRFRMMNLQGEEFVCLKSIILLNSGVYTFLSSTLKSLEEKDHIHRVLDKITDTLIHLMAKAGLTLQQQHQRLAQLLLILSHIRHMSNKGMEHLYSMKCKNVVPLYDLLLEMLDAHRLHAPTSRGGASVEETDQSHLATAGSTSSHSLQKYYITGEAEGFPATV
# adult male ICR mice = experiment: Mouse depression assay; type: in vivo; settings: intraperitoneal
# GPR30 [3] = target: T1, GPR30; experiment: PI3K activation; type: cell-based; settings: GPR30-transfected COS7 cells
# GPR30 [4] = target: T1, GPR30; experiment: PI3K activation; type: cell-based; settings: SKBr3 cells
# ERα [5] = target: T2, ERα; experiment: Competitive binding with E2-Alexa633 in COS7 cells transfected with ERα-GFP
# T1 sequence (Q99527 whole entry): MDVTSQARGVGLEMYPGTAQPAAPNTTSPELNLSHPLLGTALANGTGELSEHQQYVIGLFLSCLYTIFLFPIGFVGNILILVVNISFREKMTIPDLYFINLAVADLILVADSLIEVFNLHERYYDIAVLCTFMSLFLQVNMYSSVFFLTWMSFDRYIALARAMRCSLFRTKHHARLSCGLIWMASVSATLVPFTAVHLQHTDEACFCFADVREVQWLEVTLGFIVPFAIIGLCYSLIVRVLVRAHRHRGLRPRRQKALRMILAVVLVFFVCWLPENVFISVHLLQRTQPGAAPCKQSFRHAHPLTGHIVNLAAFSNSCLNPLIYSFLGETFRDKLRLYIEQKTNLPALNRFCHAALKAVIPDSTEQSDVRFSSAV
# ERβ, sequence (Q92731 whole entry, species assumed): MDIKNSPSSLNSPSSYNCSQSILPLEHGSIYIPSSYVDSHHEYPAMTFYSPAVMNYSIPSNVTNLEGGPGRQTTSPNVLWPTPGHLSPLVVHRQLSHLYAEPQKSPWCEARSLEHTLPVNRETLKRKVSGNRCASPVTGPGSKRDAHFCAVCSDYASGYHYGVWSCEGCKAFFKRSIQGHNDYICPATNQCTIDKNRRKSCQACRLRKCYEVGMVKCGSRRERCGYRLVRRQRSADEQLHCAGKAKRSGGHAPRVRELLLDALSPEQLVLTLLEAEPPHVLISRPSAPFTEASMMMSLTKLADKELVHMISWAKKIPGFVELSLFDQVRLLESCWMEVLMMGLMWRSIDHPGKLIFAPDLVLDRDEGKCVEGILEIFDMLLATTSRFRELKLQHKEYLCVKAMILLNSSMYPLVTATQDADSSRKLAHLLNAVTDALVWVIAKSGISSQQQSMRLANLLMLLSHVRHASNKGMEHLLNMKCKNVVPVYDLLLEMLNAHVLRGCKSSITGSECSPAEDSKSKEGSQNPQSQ
smiles,measurement,setting,value
"Brc1cc2c(cc1[C@@H]1Nc3ccccc3[C@@H]3C=CC[C@@H]31)OCO2 (racemic) [G15, 4-(6-Bromo-benzo[1,3]dioxol-5-yl)-3a,4,5,9b-tetrahydro-3H-cyclopenta[c]quinoline]",reduction of E2-induced uterine epithelial proliferation,uterine epithelia,approximately 50%
same,mobilization of intracellular calcium by compound alone,"GPR30 [1]; G-1 200 nM, E2 100 nM",incapable of inducing a response
same,effect of G15 exposure on subsequent calcium response to G-1 or estrogen,GPR30 [1]; then G-1 200 nM or E2 100 nM,substantially reduced the response
same,effect on estrogen-mediated PI3K response,ERβ,no effect
same,effect on estrogen-mediated PI3K response,ERα [2],no effect
same,effect of G15 pretreatment on the G-1 effect on immobility time,adult male ICR mice; G15 10 nmol/mouse + G-1 1 nmol/mouse,significantly attenuated
same,effect of G15 pretreatment on the E2 effect on immobility time,adult male ICR mice; G15 25 nmol/mouse + soluble E2 5 mg/kg,significantly attenuated
same,inhibition of G-1-mediated activation of PI3K,GPR30 [3],capable of inhibiting
same,inhibition of estrogen-mediated PI3K response,GPR30 [3],effectively blocked
same,inhibition of estrogen and G-1 stimulation of PI3K,GPR30 [4],able to inhibit
same,pKi,ERα [5],< 5.00
